The values below come from patent US8329904B2, “Azacyclic derivatives” (Hoffmann-La Roche Inc., priority 2009, dated 2012).

The target of the test is T1, human HSL (Homo sapiens, UniProt Q05469).
T1 construct: overlapping PCR to generate a full length human HSL ORF with a 3′-His6 tag; His6 (C); made in house; host or cells: High 5 insect cells (baculovirus, pFast-BAC)
T1 sequence (Q05469 1-1076): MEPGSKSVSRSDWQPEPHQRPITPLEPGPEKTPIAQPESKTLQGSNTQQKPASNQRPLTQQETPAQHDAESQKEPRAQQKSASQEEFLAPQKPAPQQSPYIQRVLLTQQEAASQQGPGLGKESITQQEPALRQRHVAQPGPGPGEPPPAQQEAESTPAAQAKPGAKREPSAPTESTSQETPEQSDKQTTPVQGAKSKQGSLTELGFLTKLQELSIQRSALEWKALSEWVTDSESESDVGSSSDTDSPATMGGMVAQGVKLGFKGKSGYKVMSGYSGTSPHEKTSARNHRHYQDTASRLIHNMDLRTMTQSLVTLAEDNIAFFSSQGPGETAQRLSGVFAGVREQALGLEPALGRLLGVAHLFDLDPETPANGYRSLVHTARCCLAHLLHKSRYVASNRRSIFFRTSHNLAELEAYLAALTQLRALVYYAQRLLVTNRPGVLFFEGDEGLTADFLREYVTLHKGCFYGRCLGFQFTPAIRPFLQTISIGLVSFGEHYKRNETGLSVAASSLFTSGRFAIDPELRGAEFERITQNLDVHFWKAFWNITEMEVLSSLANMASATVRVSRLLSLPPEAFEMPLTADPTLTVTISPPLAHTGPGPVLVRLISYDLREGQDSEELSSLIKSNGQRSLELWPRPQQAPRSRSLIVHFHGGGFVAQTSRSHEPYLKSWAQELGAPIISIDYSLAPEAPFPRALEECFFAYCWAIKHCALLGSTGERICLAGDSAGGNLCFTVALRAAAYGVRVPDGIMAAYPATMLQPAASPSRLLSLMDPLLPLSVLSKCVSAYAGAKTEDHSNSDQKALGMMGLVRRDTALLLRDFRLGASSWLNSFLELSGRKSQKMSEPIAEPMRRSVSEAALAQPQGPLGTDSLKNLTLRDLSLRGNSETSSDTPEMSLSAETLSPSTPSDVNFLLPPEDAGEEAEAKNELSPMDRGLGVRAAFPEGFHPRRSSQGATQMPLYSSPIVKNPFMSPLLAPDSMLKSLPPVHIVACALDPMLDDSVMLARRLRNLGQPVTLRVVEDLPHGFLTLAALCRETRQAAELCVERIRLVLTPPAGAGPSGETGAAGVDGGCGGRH
As to the kind of experiment: Human Hormone-Sensitive Lipase (HSL) Enzyme Inhibition Assay. The test is classed as biochemical. To be noted: colorimetric assay, 2,3-dimercapto-1-propanol tributyrate (DMPT) substrate, 37° C. for 20 minutes, absorbance at 405 nm; read-out: HSL hum IC50. The protocol: Production of Human Full Length Hormone Sensitive Lipase-His^6
1) Cloning: cDNA was prepared from commercial human brain polyA-+ RNA and used as a template in overlapping PCR to generate a full length human HSL ORF with a 3′-His6 tag. This full length insert was cloned into the pFast-BAC vector and the DNA-sequence of several single clones was verified. DNA from a correct full length clone with the 3′His6 tag was used to transform the E. coli strain DH10BAC. Resulting bacmid DNA was used to generate a titered baculovirus stock for protein generation.
Cells were thawed. […] was done at 3×30 sec., Lubrol PX was added to 0.2% final concentration followed by stirring for 15 min. at 4° C. and centrifugation at 25 k×g, 60 min., 4° C. […] Supernatant was removed, the resin washed in the centrifuge vessel using 5 volumes of Base Buffer containing 0.2% Lubrol PX. Centrifugation was done again, then the supernatant discarded. The resin wass poured onto a 0.8 μm membrane in a disposable filter unit (Nalge 450-0080), and washed with 5 volumes of Base Buffer containing 0.2% Lubrol PX. It was then washed with 30 volumes of Base Buffer containing 60 mM imidazole pH 7.5 at 4° C. The protein was eluated with 5 volumes of 25 mM Tris-Cl, 300 mM NaCl, 200 mM imidazole, 10 mM 2-mercaptoethanol, pH 7.5 at 4° C. by tumbling resin with buffer end-over-end, 30 min., 4° C. The resin was captured on a 0.2 μm membrane disposable filter unit (Millipore SCGP U02 RE) and the eluate collected in the reservoir. The eluate was concentrated using a 30 k MWCO centrifugal filter device (Sartorius Vivascience Vivacell 100, VC1022), to 20 ml. It was then dialyzed overnight at 4° C., two times against 2 L of 10% glycerol, 25 mM Tris-Cl, 300 mM NaCl, 0.2 mM EDTA, 0.2 mM DTT, pH 7.5 at 4° C. The protein was filtered using a 0.22 μm disposable filter unit (Millipore SCGP00525). The protein concentration was calculated from absorbance at 280 nm, using 280=0.67 cm-1 mg-1. […] The protein was stored at −80° C.
Human Hormone-Sensitive Lipase (HSL) Enzyme Inhibition Assay:
HSL enzyme activity was measured by a colorimetric assay using 2,3-dimercapto-1-propanol tributyrate (Aldrich, St. Louis, Mo.) as a substrate. Typically, 1.5 mM 2,3-dimercapto-1-propanol tributyrate (DMPT) in 100 mM MOPS, pH 7.2, 0.2 mg/ml fatty acid-free BSA was prepared by sonication at 4° C. to homogenous suspension. Test compounds (2 mM stock in DMSO) were diluted 3 fold in series in DMSO. Compound solutions were diluted 24 fold in 1.5 mM DMPT containing solution and 18 ul per well was added to 384-well microplates (Corning Costar). Twelve microliters per well of human HSL (15 ug/ml) was added and the reaction mixture was incubated at 37° C. for 20 minutes. Six microliters of 12 mM dithio-bis-(2-nitrobenzoic acid) (DTNB) in DMSO plus 1.2% SDS and 0.6% Triton X-100 were added and the mixture was incubated at room temperature for 15 minutes. Product production was monitored by reading absorbance at 405 nm on an Envision Reader (PerkinElmer Life and Analytical Sciences, Shelton, Conn.).
As to `CC(Oc1ccc(N2CCC3(CCN(S(=O)(=O)c4ccccc4)CC3)C2=O)cc1)C(F)(F)F` (racemic) [Example 4, (rac)-8-Benzenesulfonyl-2-[4-(2,2,2-trifluoro-1-methyl-ethoxy)-phenyl]-2,8-diaza-piro[4.5]decan-1-one], the concentration for half-maximal inhibition (IC50) turned out to be 0.02 µM.
Consider `CC(Oc1ccc(N2CCC3(CCN(S(=O)(=O)CC(C)(C)C)CC3)C2=O)cc1)C(F)(F)F` (racemic) [Example 22, (rac)-8-(2,2-Dimethyl-propane-1-sulfonyl)-2-[4-(2,2,2-trifluoro-1-methyl-ethoxy)-phenyl]-2,8-diaza-spiro[4.5]decan-1-one], for which the IC50 turned out to be 0.13 µM.
Consider `CC(Oc1ccc(N2CCC3(CCN(S(=O)(=O)c4ccccc4)CC3)C2=O)cn1)C(F)(F)F` (racemic) [Example 25, (rac)-8-Benzenesulfonyl-2-[6-(2,2,2-trifluoro-1-methyl-ethoxy)-pyridin-3-yl]-2,8-diaza-spiro[4.5]decan-1-one], for which the IC50 stood at 0.05 µM.
Take `CC(Oc1ccc(N2CCC3(CCN(S(=O)(=O)c4ccccc4Cl)CC3)C2=O)cn1)C(F)(F)F` (racemic) [Example 114, 8-(2-Chloro-benzenesulfonyl)-2-[6-(2,2,2-trifluoro-1-methyl-ethoxy)-pyridin-3-yl]-2,8-diaza-spiro[4.5]decan-1-one (rac)]: the IC50 was determined as 0.05 µM.
The result for `Cc1noc(C)c1S(=O)(=O)N1CCC2(CCN(c3ccc(C(O)C(F)(F)F)cc3)C2=O)CC1` (racemic) [Example 162, (rac)-8-(3,5-Dimethyl-isoxazole-4-sulfonyl)-2-[4-(2,2,2-trifluoro-1-hydroxy-ethyl)-phenyl]-2,8-diaza-spiro[4.5]decan-1-one] reads 0.12 µM; that for `O=C1N(c2ccc(C(O)C(F)F)cc2)CCC12CCN(S(=O)(=O)c1ccccc1C(F)(F)F)CC2` (racemic) [Example 176, (rac)-2-(4-(2,2-difluoro-1-hydroxyethyl)phenyl)-8-(2-(trifluoromethyl)phenylsulfonyl)-2,8-diazaspiro[4.5]decan-1-one], 0.04 µM.
Regarding `O=C1N(c2ccc(OC(F)(F)F)cc2)CCC12CCN(S(=O)(=O)c1ccccc1Cl)CC2` [Example 1, 8-(2-Chloro-benzenesulfonyl)-2-(4-trifluoromethoxy-phenyl)-2,8-diaza-spiro[4.5]decan-1-one], the IC50 was 0.03 µM.
For `O=C1N(c2ccc(OC(F)(F)F)cc2)CCC12CCN(S(=O)(=O)c1ccccc1)CC2` [Example 2, 8-Benzenesulfonyl-2-(4-trifluoromethoxy-phenyl)-2,8-diaza-spiro[4.5]decan-1-one], the IC50 came to 0.04 µM.
The result for `CC(C)(C)c1ccc(N2CCC3(CCN(S(=O)(=O)c4ccccc4)CC3)C2=O)cc1` [Example 3, 8-Benzenesulfonyl-2-(4-tert-butyl-phenyl)-2,8-diaza-spiro[4.5]decan-1-one] reads 0.03 µM; that for `CC(C)(Oc1ccc(N2CCC3(CCN(S(=O)(=O)c4ccccc4)CC3)C2=O)cc1)C(F)(F)F` [Example 5, 8-Benzenesulfonyl-2-[4-(2,2,2-trifluoro-1,1-dimethyl-ethoxy)-phenyl]-2,8-diaza-spiro[4.5]decan-1-one], 0.04 µM.
The result for `CC(C)Oc1ccc(N2CCC3(CCN(S(=O)(=O)c4ccccc4)CC3)C2=O)cc1` [Example 6, 8-Benzenesulfonyl-2-(4-isopropoxy-phenyl)-2,8-diaza-spiro[4.5]decan-1-one] reads 0.04 µM; that for `CC(C)(C)CC(=O)N1CCC2(CC1)CCN(c1ccc(OC(F)(F)F)cc1)C2=O` [Example 7, 8-(3,3-Dimethyl-butyryl)-2-(4-trifluoromethoxy-phenyl)-2,8-diaza-spiro[4.5]decan-1-one], 0.06 µM; that for `O=C1N(c2ccc(OC(F)(F)F)cc2)CCC12CCN(S(=O)(=O)N1CCOCC1)CC2` [Example 8, 8-(Morpholine-4-sulfonyl)-2-(4-trifluoromethoxy-phenyl)-2,8-diaza-spiro[4.5]decan-1-one], 0.09 µM.

One may read the IC50 as the point on the concentration scale where inhibition reaches its midpoint.
